How the values were obtained:
[1] = molecular target: rat orexin 1 receptor (Rattus norvegicus, UniProt P56718); assay: Rat orexin 1 receptor radioligand binding (competitive); conditions: HEK293 cells stably expressing rat orexin 1 receptor; 4 nM radioligand; averages of 2-20 runs; read-out: rOX1 Ki
How it was run: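 Competition binding used HEK293 cells expressing rat OX1 or CHO cells expressing human OX1, with 4 nM final [3H]-labelled thiazolyl-oxadiazolyl-pyrrolidinyl methanone radioligand in PBS. Compounds were tested at 7 concentrations (0.1 nM–10 μM) for 60 min at room temperature, then filtered; 10 μM almorexant defined nonspecific binding. Ki was derived from the one-site IC50 and the radioligand Kd.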

[2] = molecular target: human orexin 2 receptor (Homo sapiens (Human), UniProt O43614); assay: Human orexin 2 receptor radioligand binding ([3H]-EMPA competition); conditions: HEK293 stably expressing human orexin 2 receptor; 2 nM [3H]-EMPA; averages of 2-20 runs; read-out: hOX2 Ki
How it was run: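 Membranes-free whole HEK293 cells stably expressing human OX2 receptor incubated with [3H]-EMPA and compound (7 concentrations, 0.1 nM–10 μM, ≤0.1% DMSO) for 60 min at room temperature; nonspecific binding with 10 μM almorexant. Filtration and scintillation counting; one-site IC50 converted to Ki using predetermined Kd, triplicates averaged over 2-20 runs.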

[3] = molecular target: human orexin 1 receptor (Homo sapiens (Human), UniProt O43613); assay: Human orexin 1 receptor radioligand binding (competitive); conditions: CHO cells stably expressing human orexin 1 receptor; 4 nM radioligand; averages of 2-20 runs; read-out: hOX1 Ki
Method: The in vitro affinity of the compounds of the invention for the rat/human orexin 1 and human orexin 2 receptors was determined by competitive radioligand binding using [^3H](1-(5-(2-fluoro-phenyl)-2-methyl-thiazol-4-yl)-1-((S)-2-(5-phenyl-(1,3,4)oxadiazol-2-ylmethyl)-pyrrolidin-1-yl)-methanone) (Langmead et al., 2004) and [^3H]EMPA (n-ethyl-2[96-methoxy-pyridin-3-yl)-(toluene-2-sulfonyl)-amino]-N-pyridin-3-ylmethyl acetamide), respectively (Langmead et al., 2004, British Journal of Pharmacology 141:340-346; Malherbe et al., 2004, British Journal of Pharmacology 156:1326-41).
Data are analyzed using pc-Sandy macro and graphed on Graphpad Prism 5. For analysis, each concentration point is averaged from triplicate values and the averaged values are plotted on Graphpad Prism. The IC50 was determined by applying the following equation (GraphPad Prism 5.0, San Diego) for one site competition where X=log (concentration) and Y=specific binding. Top denotes the total [^3H]— (1-(5-(2-fluoro-phenyl)-2-methyl-thiazol-4-yl)-1-((S)-2-(5-phenyl-(1,3,4)oxadiazol-2-ylmethyl)-pyrrolidin-1-yl)-methanone) binding, bottom denotes the nonspecific [^3H]— (1-(5-(2-fluoro-phenyl)-2-methyl-thiazol-4-yl)-1-((S)-2-(5-phenyl-(1,3,4)oxadiazol-2-ylmethyl)-pyrrolidin-1-yl)-methanone) binding. Graphpad Prism calculates Ki value from IC50 and the pre-determined Kd values for [^3H]— (1-(5-(2-fluoro-phenyl)-2-methyl-thiazol-4-yl)-1-((S)-2-(5-phenyl-(1,3,4)oxadiazol-2-ylmethyl)-pyrrolidin-1-yl)-methanone) and [^3H]-EMPA. The Ki for each compound is then uploaded into 3DX. Each run comprises individual compounds in triplicate. The data in Table 1 and Table 2 represent averages from between 2-20 runs
Rat and Human Orexin 1 Receptor Radioligand Binding Studies
Human Embryonic Kidney 293 cells (HEK293) stably expressing rat orexin 1 receptor (Genebank accession number NM_001525) or Chinese ovary cells (CHO) stably expressing human orexin 1 receptor (Genebank accession number […]) were grown to confluency in DMEM (Hyclone, cat # SH30022), 10% FBS, 1× Pen/Strep, 1× sodium pyruvate, 10 mM HEPES, 600 μg/mL G418 and DMEM/F12 (Gibco, Cat #11039), 10% FBS, 1× Pen/Strep, 600 μg/mL G418 media, respectively on 150 cm^2 tissue culture plates, washed with 5 mM EDTA in PBS (HyClone Dulbecco's Phosphate Buffered Saline 1× with Calcium and Magnesium, Cat # SH30264.01, hereafter referred to simply as PBS) and scraped into 50 ml tubes. After centrifugation (2K×G, 5 min at 4° C.), the supernatant was aspirated and the pellets frozen and stored at −80° C. Cells were resuspended in PBS in the presence of 1 tablet of protease inhibitor cocktail (Roche, Cat. #11836145001) per 50 mL. […] Competition binding experiments in 96 well polypropylene plates were performed using [^3H]— (1-(5-(2-fluoro-phenyl)-2-methyl-thiazol-4-yl)-1-((S)-2-(5-phenyl-(1,3,4)oxadiazol-2-ylmethyl)-pyrrolidin-1-yl)-methanone) (Moraveck Corporation, specific activity=35.3 Ci/mmol), diluted to a 10 nM concentration in PBS (4 nM final). Compounds were solubilized in 100% DMSO (Acros Organics, Cat. #61042-1000) and tested over a range of 7 concentrations (from 0.1 nM to 10 μM). The final concentration of DMSO in the reactions is equal to or less than 0.1%. Total and nonspecific binding was determined in the absence and presence of 10 μM almorexant. The total volume of each reaction is 200 μL (20 μL of diluted compounds, 80 μL of [^3H]— (1-(5-(2-fluoro-phenyl)-2-methyl-thiazol-4-yl)-1-((S)-2-(5-phenyl-(1,3,4)oxadiazol-2-ylmethyl)-pyrrolidin-1-yl)-methanone) diluted in PBS and 100 μL of the cell suspension). Reactions were run for 60 min at room temperature and terminated by filtration through GF/C filter plates (PerkinElmer, Cat. #6005174) presoaked in 0.3% polyethylenimine using the cell harvester (PerkinElmer Filtermate). The plates were washed 3 times by aspirating 30 ml PBS through the plates. Plates were dried in 55° C. oven for 60 min, scintillation fluid was added, and the radioactivity was counted on a Topcount (Packard). […]

human orexin 1 receptor, sequence (O43613 whole entry): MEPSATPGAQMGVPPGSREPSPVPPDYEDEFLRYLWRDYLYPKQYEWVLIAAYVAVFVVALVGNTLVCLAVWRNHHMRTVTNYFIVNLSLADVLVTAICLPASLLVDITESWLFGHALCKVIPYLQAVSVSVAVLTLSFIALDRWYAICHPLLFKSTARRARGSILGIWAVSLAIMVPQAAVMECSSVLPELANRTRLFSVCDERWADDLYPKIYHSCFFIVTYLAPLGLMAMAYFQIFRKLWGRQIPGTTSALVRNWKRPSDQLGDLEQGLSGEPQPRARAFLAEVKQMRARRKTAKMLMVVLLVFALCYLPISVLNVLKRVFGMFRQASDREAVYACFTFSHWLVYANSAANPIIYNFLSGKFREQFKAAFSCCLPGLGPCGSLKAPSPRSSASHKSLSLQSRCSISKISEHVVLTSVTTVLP
human orexin 2 receptor, sequence (O43614 whole entry): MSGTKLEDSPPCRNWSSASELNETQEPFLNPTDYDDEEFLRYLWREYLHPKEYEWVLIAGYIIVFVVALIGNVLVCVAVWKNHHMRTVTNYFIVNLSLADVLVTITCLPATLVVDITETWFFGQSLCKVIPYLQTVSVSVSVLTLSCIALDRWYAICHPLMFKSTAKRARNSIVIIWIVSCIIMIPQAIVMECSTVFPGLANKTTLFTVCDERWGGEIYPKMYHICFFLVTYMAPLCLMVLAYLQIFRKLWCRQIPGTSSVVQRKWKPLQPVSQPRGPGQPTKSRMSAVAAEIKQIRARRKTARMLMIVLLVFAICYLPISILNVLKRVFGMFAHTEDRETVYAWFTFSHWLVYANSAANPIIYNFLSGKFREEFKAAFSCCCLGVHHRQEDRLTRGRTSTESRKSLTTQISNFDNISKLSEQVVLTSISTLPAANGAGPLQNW

**Q.** Which Ki [1] does the source give for Cc1ccc(Br)c(C(=O)N2C(C)C3CC(Nc4cnc(C(F)(F)F)cn4)C2C3)n1 (racemic) [Example 7, (R/S)-(3-bromo-6-methylpyridin-2-yl)(3-methyl-6-((5-(trifluoromethyl)pyrazin-2-yl)amino)-2-azabicyclo[2.2.1]heptan-2-yl)methanone] here?
**A.** 125 nM

**Q.** What about the Ki [2] of the same compound?
**A.** 1200 nM

**Q.** And the Ki [3]?
**A.** 144 nM

**Q.** CC1C2CC(Oc3ccc(C(F)(F)F)cn3)C(C2)N1C(=O)c1ncccc1-c1ncccn1 (racemic) [Example 14] was tested. Which Ki [1] did it give?
**A.** 11 nM

**Q.** What about the Ki [2] of the same compound?
**A.** 3700 nM

**Q.** What about the Ki [3] of the same compound?
**A.** 13 nM

**Q.** For Cc1ccc(-n2nccn2)c(C(=O)N2C(C)C3CC(Oc4cnc(C(F)(F)F)cn4)C2C3)n1 (racemic) [Example 42, (R/S)-(6-methyl-3-(2H-1,2,3-triazol-2-yl)pyridin-2-yl)(3-methyl-6-((5-(trifluoromethyl)pyrazin-2-yl)oxy)-2-azabicyclo[2.2.1]heptan-2-yl)methanone], which Ki [1] is on record?
**A.** 55 nM

**Q.** And the Ki [2]?
**A.** > 10000 nM

**Q.** What about the Ki [3] of the same compound?
**A.** 45 nM

**Q.** Which results are given for Cc1ccc(-n2nccn2)c(C(=O)N2C(C)C3CC(Nc4ccc(C(F)(F)F)cn4)C2C3)n1 (racemic) [Example 58, (R/S)-(6-methyl-3-(2H-1,2,3-triazol-2-yl)pyridin-2-yl)(3-methyl-6-((5-(trifluoromethyl)pyridin-2-yl)amino)-2-azabicyclo[2.2.1]heptan-2-yl)methanone]?
**A.** Ki [1]: 11 nM; Ki [2]: 236 nM; Ki [3]: 14 nM

**Q.** Cc1cnc(C(=O)N2C(C)C3CC(Nc4ccc(C(F)(F)F)cn4)C2C3)c(-c2ncccn2)c1 (racemic) [Example 59, (R/S)-(5-methyl-3-(pyrimidin-2-yl)pyridin-2-yl)(3-methyl-6-((5-(trifluoromethyl)pyridin-2-yl)amino)-2-azabicyclo[2.2.1]heptan-2-yl)methanone] was tested. Which Ki [1] did it give?
**A.** 20 nM

**Q.** What about the Ki [2] of the same compound?
**A.** 4100 nM

**Q.** What about the Ki [3] of the same compound?
**A.** 53 nM

**Q.** What does the source list for O=C(c1c(F)cccc1-c1ncco1)N1C(CF)C2CC(Oc3ccc(C(F)(F)F)cn3)C1C2 (racemic) [Example 71]?
**A.** Ki [1]: 32 nM; Ki [2]: 1500 nM; Ki [3]: 29 nM

**Q.** With Cc1cnc(C(=O)N2C(CC(C)C)C3CC(Oc4ccc(C(F)(F)F)cn4)C2C3)c(-n2nccn2)c1 (racemic) [Example 208, (R/S)-[2-isobutyl-5-[[5-(trifluoromethyl)-2-pyridyl]oxy]-3-azabicyclo[2.2.1]heptan-3-yl]-[5-methyl-3-(triazol-2-yl)-2-pyridyl]methanone] as the compound, how does the Ki [1] read?
**A.** 177 nM

**Q.** What about the Ki [2] of the same compound?
**A.** 418 nM

**Q.** And the Ki [3]?
**A.** 170 nM

**Q.** For CC(C)CC1C2CC(Oc3ccc(C(F)(F)F)cn3)C(C2)N1C(=O)c1ccccc1-c1ncccn1 (racemic) [Example 209, (R/S)-[2-isobutyl-5-[[5-(trifluoromethyl)-2-pyridyl]oxy]-3-azabicyclo[2.2.1]heptan-3-yl]-(2-pyrimidin-2-ylphenyl)methanone], which Ki [1] is on record?
**A.** 44 nM

**Q.** What about the Ki [2] of the same compound?
**A.** 3000 nM

**Q.** And the Ki [3]?
**A.** 24 nM

**Q.** For CC(C)CC1C2CC(Oc3ccc(C(F)(F)F)cn3)C(C2)N1C(=O)c1ccccc1-c1ncc(F)cn1 (racemic) [Example 212, (R/S)-[2-(5-fluoropyrimidin-2-yl)phenyl]-[2-isobutyl-5-[[5-(trifluoromethyl)-2-pyridyl]oxy]-3-azabicyclo[2.2.1]heptan-3-yl]methanone], which Ki [1] is on record?
**A.** 100 nM

**Q.** What about the Ki [2] of the same compound?
**A.** 3800 nM

**Q.** What about the Ki [3] of the same compound?
**A.** 55 nM

**Q.** Which Ki [1] does the source give for CCC1C2CC(Oc3ccc(C(F)(F)F)cn3)C(C2)N1C(=O)c1ncc(C)cc1-n1nccn1 (racemic) [Example 216, (R/S)-[2-ethyl-5-[[5-(trifluoromethyl)-2-pyridyl]oxy]-3-azabicyclo[2.2.1]heptan-3-yl]-[5-methyl-3-(triazol-2-yl)-2-pyridyl]methanone] here?
**A.** 11 nM

**Q.** What about the Ki [2] of the same compound?
**A.** 1500 nM

**Q.** And the Ki [3]?
**A.** 11 nM

**Q.** Which results are given for CCC1C2CC(Oc3ccc(C(F)(F)F)cn3)C(C2)N1C(=O)c1cccc(F)c1-c1ncccn1 (racemic) [Example 217, (R/S)-[2-ethyl-5-[[5-(trifluoromethyl)-2-pyridyl]oxy]-3-azabicyclo[2.2.1]heptan-3-yl]-(3-fluoro-2-pyrimidin-2-yl-phenyl)methanone]?
**A.** Ki [1]: 13 nM; Ki [2]: 243 nM; Ki [3]: 9 nM

**Q.** With C[C@@H]1[C@H]2C[C@@H](Oc3ccc(C(F)(F)F)cn3)[C@H](C2)N1C(=O)c1cccc(F)c1-n1nccn1 (relative stereo) [Example 27, (3-fluoro-2-(2H-1,2,3-triazol-2-yl)phenyl)((1S*,3R*,4R*,6R*)-3-methyl-6-((5-(trifluoromethyl)pyridin-2-yl)oxy)-2-azabicyclo[2.2.1]heptan-2-yl)methanone] as the compound, how does the Ki [1] read?
**A.** 5 nM

**Q.** What about the Ki [2] of the same compound?
**A.** 595 nM

**Q.** What about the Ki [3] of the same compound?
**A.** 8 nM

**Q.** With CC1C2CC(Oc3ccc(C(F)(F)F)cn3)C(C2)N1C(=O)c1ccccc1-c1ncc(F)cn1 (single isomer, unassigned) [Example 19B, (2-(5-fluoropyrimidin-2-yl)phenyl)((1S*,3R*,4R*,6R*)-3-methyl-6-((5-(trifluoromethyl)pyridin-2-yl)oxy)-2-azabicyclo[2.2.1]heptan-2-yl)methanone] as the compound, how does the Ki [1] read?
**A.** 5 nM

**Q.** And the Ki [3]?
**A.** 6 nM

**Q.** CC1C2CC(Nc3cnc(C(F)(F)F)cn3)C(C2)N1C(=O)c1cccc(F)c1-c1ncccn1 (single isomer, unassigned) [Example 67, (R/S)-(3-fluoro-2-(pyrimidin-2-yl)phenyl)(3-methyl-6-((5-(trifluoromethyl)pyrazin-2-yl)amino)-2-azabicyclo[2.2.1]heptan-2-yl)methanone] was tested. Which Ki [1] did it give?
**A.** 16 nM

**Q.** And the Ki [3]?
**A.** 21 nM

**Q.** For C[C@@H]1[C@H]2C[C@@H](Oc3ccc(Cl)cn3)[C@H](C2)N1C(=O)c1ccccc1-n1nccn1 [Example 121, [(1R,2R,4S,5R)-5-[(5-chloro-2-pyridyl)oxy]-2-methyl-3-azabicyclo[2.2.1]heptan-3-yl]-[2-(triazol-2-yl)phenyl]methanone], which Ki [1] is on record?
**A.** 3 nM

**Q.** What about the Ki [3] of the same compound?
**A.** 3 nM

**Q.** How did the Ki [1] turn out when [2H]C1([2H])[C@H]2C[C@@H]([C@@H]1Oc1ccc(Cl)cn1)N(C(=O)c1ccccc1-n1nccn1)[C@@H]2C [Example 195, [(1R,3R,4S,6R)-3-[(5-chloro-2-pyridyl)oxy]-2,2-dideuterio-6-methyl-5-azabicyclo[2.2.1]heptan-5-yl]-[2-(triazol-2-yl)phenyl]methanone] was run?
**A.** 8 nM

**Q.** What about the Ki [3] of the same compound?
**A.** 4 nM

Reference: US9611262B2, “Substituted 2-azabicycles and their use as orexin receptor modulators” (JANSSEN PHARMACEUTICA NV, priority 2014, dated 2017)
